Experiment: Human HepG2 cell viability assay in 384 well format
Type: toxicity, cell-based
Set-up: dose 125 nL, time 70.5 hour; cytotoxicity at 70.5 h: concentration not given beside the values
Details: HepG2 cells, read-out: Inhibition

| Structure (SMILES) | cytotoxicity at 70.5 h [%] |
| --- | --- |
| Cc1cnn(CCNC(C)C(=O)NCCc2cccs2)c1 (configuration not stated) | 23 |
| Cc1cccc(=O)n1CCC(=O)N1CC[C@@](O)(C2CCC2)[C@H](C)C1 | -9.83 |
| Cc1ccc(NC2CCN(C(=O)Cc3c(C)nn(C)c3C)CC2)nn1 | -1.21 |
| CC(NCCCn1cccn1)c1ccc(N2CCCS2(=O)=O)cc1 (configuration not stated) | -4.88 |
| CNc1cc(C)nc(N2C[C@H](C3CC3)[C@@H](N)C2)n1 | 6.57 |
| Cc1nn(C)c2c(NC3CCCC3)nc(C3CC3)nc12 | -7.15 |
| COCCN(Cc1cccc(C#N)c1)Cc1nnsc1Cl | 23 |
| COc1cc(N2CCC(c3nccn3Cc3cccnc3)CC2)ncn1 | -5.38 |
| COc1ccc(F)cc1C(=O)Nc1nnc(C)s1 | 6.71 |
| CC(C)Cn1cncc1Cn1cccc(C(F)(F)F)c1=O | -2.53 |
| Clc1ccc(C2(NCc3noc(C4CC4)n3)CCC2)cc1 | -5.74 |
| CCn1ncc2c1C(COC)CN(Cc1ccco1)C2 (configuration not stated) | 3.48 |
| c1cnn(CC2CCCCN2c2ncnc3sccc23)c1 (configuration not stated) | -6.33 |
| CN1C(=O)C[C@@H]2[C@@H]1CCN2S(=O)(=O)Cc1ccccc1 | -3.44 |
| Cc1n[nH]c(-c2ccc(NC(=O)C(C)N3CCN(C)CC3)cc2)n1 (configuration not stated) | 2.06 |
| COCCN1CCN(Cc2cccc(C(=O)N(C)C)c2)CC1C (configuration not stated) | 14.5 |
| Brc1cnc(NCCCOCC2CCOC2)nc1 (configuration not stated) | -5.54 |
| CC(=O)N1CC2C[C@]2(NC(=O)c2ccco2)C1 (some centres not stated) | 18.4 |
| Cc1nc(N2CCCC2C(=O)NC(C)(C)CO)nc2ccccc12 (configuration not stated) | -7.7 |
| Cc1cc(C)n(CC2CCCN2C(=O)c2cccc3c2OCCO3)n1 (configuration not stated) | -3.57 |
| N#CC1(NC(=O)CN2CCC(c3ccnn3CCO)CC2)CCCC1 | -11.9 |

| Structure (SMILES) | cytotoxicity at 70.5 h [%] |
| --- | --- |
| N#CCCn1cnc2c(Br)cc(Br)cc2c1=O | -3.9 |
| Cc1cccc(CN2C[C@@H]3OCCN(S(=O)(=O)N(C)C)[C@@H]3C2)n1 | -6.13 |
| Cc1cc(F)ccc1CCNC(=O)NCC(C)N1CCOCC1 (configuration not stated) | 3.68 |
| COCC(=O)N1CCC(C(=O)Nc2ccc(S(N)(=O)=O)cc2)CC1 | -7.49 |
| COc1ccc(C2CCCN2Cc2nnnn2C2CC2)cc1OC (configuration not stated) | -0.63 |
| CCOc1ccc2ccccc2c1CNCC1CCNCC1 | 9.2 |
| CCOc1cccc(CNc2cncc(-n3cccn3)n2)c1 | -8.59 |
| CCS(=O)(=O)N1C[C@@H](c2nnc(C)o2)C[C@H]2OCC[C@H]21 | -9.81 |
| COC(=O)c1ccc(N2CCN(C(=O)c3cnccn3)C(C)C2)cc1 (configuration not stated) | -6.45 |
| CC(C)N(CC(N)=O)C(=O)c1cnc(-c2ccc3c(c2)OCO3)s1 | 5.92 |
| Cc1csc(N2CCN(CC(=O)Nc3ccncc3)CC2C)n1 (configuration not stated) | 9.84 |
| CC(C)c1nnc2n1CC(CNCc1cccnc1)CC2 (configuration not stated) | -6.45 |
| O=C(NCc1cccs1)[C@]12COC[C@H]1CN(c1ncccn1)C2 | -3.55 |
| Cn1c(CCC(=O)N2CCCC3(CNC(=O)O3)C2)nc2cccnc21 (configuration not stated) | -14.8 |
| CO[C@@H]1CCC[C@@H](N(C)C(=O)c2cc(F)ccc2F)[C@H]1O | -3.32 |
| COC(=O)CCC(=O)N1CCc2[nH]nc(-c3ccc4c(c3)OCO4)c2C1 | -3.99 |
| O=C(NC1CC2(CCN(CCO)CC2)c2ccccc21)c1ccno1 (configuration not stated) | 17.6 |
| COCCC(=O)N1CCC2(CCN(Cc3cccc(F)c3)CC2)C1 | -4.51 |
| O=C(C[S+]([O-])Cc1csc(C2CCCC2)n1)NC1CCCC1 (configuration not stated) | -1.25 |
| N#Cc1cc2n(n1)CCN(C(=O)CCc1c[nH]c3ccccc13)C2 | -10.2 |
| CC1=N[C@@]2(CC[C@@H]3CN(S(=O)(=O)CC(C)C)C[C@@H]32)C(=O)N1C | -10.5 |

| Structure (SMILES) | cytotoxicity at 70.5 h [%] |
| --- | --- |
| Cn1cnc(S(=O)(=O)N2CCCc3c(F)cc(F)cc32)c1Cl | 22.3 |
| Cc1ncn(-c2cc(N3CCN(S(C)(=O)=O)CC3)ncn2)c1C | -4.92 |
| CN(C)[C@@H]1CN(C(=O)c2cc3ccc(F)cc3[nH]2)C[C@H]1O | -2.24 |
| O=C(Cn1nc(Br)nc1Br)N1CCCC1 | -0.289 |
| Cc1ccccc1C(O)CNS(=O)(=O)Cc1cccc(C#N)c1 (configuration not stated) | -3.55 |
| CNC(=O)C1Cn2ccnc2C2(CCN(C(=O)c3ccccn3)CC2)O1 (configuration not stated) | -2.1 |
| Cn1cc(CNc2ccc(CCN3CCC(C(N)=O)CC3)cc2)cn1 | 13.6 |
| COc1ccccc1OCC(=O)n1ncc(C#N)c1N | 9.32 |
| COc1ncnc(N(C)C)c1NC(=O)Cc1cc(F)ccc1F | -5.92 |
| CCOc1cc(F)ccc1NC1CCN(CC(F)(F)F)C1=O (configuration not stated) | -0.756 |
| COCCN1CCn2c(CN(C)C(C)C)cnc2C1 | -7.59 |
| COc1ccc(CNC[C@@]2(COc3cccnc3)C[C@@H](O)[C@@H](O)C2)cc1 | 10.2 |
| O=C(NCCc1c[nH]cn1)c1ccc2c(c1)C(=O)N(C1CC1)C2=O | 3.29 |
| CCS(=O)(=O)CCNC(=O)NC(C)c1cc(C)sc1C (configuration not stated) | -15.4 |
| O=C1CCSCC(C(=O)N2CCOCC2)N1 (configuration not stated) | 0.753 |
| Cc1ccc(NC(=O)N2CCOC(C)(c3cnn(C)c3)C2)c(C)c1 (configuration not stated) | -3.64 |
| O=C(CCc1cccnc1)N1CCC(c2cnccn2)CC1 | -6.11 |
| Cc1c(C(=O)N2CC(Cc3nccc4ccn(C)c34)C2)cnn1C | -6.29 |
| CCn1cc2c(n1)CN(S(=O)(=O)c1cccnc1)CC2COC (configuration not stated) | 1.06 |
| Cc1nc2ccccc2nc1CN1CCOC(Cn2cccn2)C1 (configuration not stated) | -9.86 |
| CCc1nnc(CN2CCCC(Cn3nc(C)nc3C)C2)o1 (configuration not stated) | -11.6 |

| Structure (SMILES) | cytotoxicity at 70.5 h [%] |
| --- | --- |
| Cc1cc(NC(=O)N(CCO)Cc2ccsc2)no1 | -4.98 |
| COCC(=O)N1CCc2[nH]nc(-c3ccc4c(c3)OCO4)c2C1 | -3.34 |
| CCOc1ccc(C#N)cc1NC(=O)N1CCC(n2cncn2)CC1 | 5.95 |
| CN(C)C(=O)N1Cc2ccccc2C2(CCNCC2)C1 | 28.5 |
| Cc1c(CNC(=O)C2CCCN2C(=O)C2CC2)oc2ccccc12 (configuration not stated) | -7.22 |
| O=C(O)CCNC(=O)Cc1csc(-c2cccc(Cl)c2)n1 | -14 |
| Cc1ccccc1CN(CCN(C)C)Cc1ccc(C(=O)O)cc1 | -5.98 |
| c1ccc(CCc2n[nH]c(C3CCOC3)n2)cc1 (configuration not stated) | -10.1 |
| Cc1ccc(-c2cc(N)c(=O)n(CC(=O)NCC3CC3)n2)s1 | -23.3 |
| CCCS(=O)(=O)NC1CCc2c(ccc(=O)n2CC2CC2)C1 (configuration not stated) | -8.69 |
| Cc1cnc(NC(=O)C(C)Oc2ccc3c(c2)OCO3)s1 (configuration not stated) | -7.91 |
| O=C(CCc1ccccn1)N1CCCC1 | -3.29 |
| CCOc1ccc(NC(=O)Nc2cc(N3CCCCC3)ncn2)cc1 | -1.28 |
| Cc1cccnc1NCCNC(=O)c1cnc(-c2cccs2)nc1O | -0.575 |
| CCN(CC)C(=O)C1CCC(=O)N(CCc2cccc(F)c2)C1 (configuration not stated) | 19.7 |
| Cc1c(C(C)Nc2ncnc3sccc23)cnn1C (configuration not stated) | -8.04 |
| COC(=O)COc1cccc(NS(=O)(=O)c2cc(C(=O)O)cs2)c1 | 10.9 |
| CCS(=O)(=O)N(C)C1CCN(C(=O)c2ccc(Cl)cc2)CC1 | -15.5 |
| NC(=O)CN1CCC(NC(=O)c2ccn(-c3cccc(F)c3)n2)CC1 | -3.27 |
